Experimental data taken from the kinase profiling compilation of Christmann-Franck et al. (2016).

Assays:
Assay in all cases: radiometric filter-binding kinase assay, Kinase HotSpot
Settings in all cases: compound 0.5 µM; ATP 10 µM
ADRBK2 (human) = ADRBK2 (human) (UniProt P35626)
BLK (human) = BLK (human) (UniProt P51451)
CDK7 CCNH MNAT1 (human) = CDK7 CCNH MNAT1 (human) (UniProt P50613+P51948+P51946)
CSF1R (human) = CSF1R (human) (UniProt P07333)
MARK1 (human) = MARK1 (human) (UniProt Q9P0L2)
STK3 (human) = STK3 (human) (UniProt Q13188)
MAPK8 (human) = MAPK8 (human) (UniProt P45983)
NEK4 (human) = NEK4 (human) (UniProt P51957)
MAPKAPK3 (human) = MAPKAPK3 (human) (UniProt Q16644)
TSSK1B (human) = TSSK1B (human) (UniProt Q9BXA7)
TEK (human) = TEK (human) (UniProt Q02763)
MYLK (human) = MYLK (human) (UniProt Q15746)
Sequence of MYLK (human) (Q15746 whole entry, looked up): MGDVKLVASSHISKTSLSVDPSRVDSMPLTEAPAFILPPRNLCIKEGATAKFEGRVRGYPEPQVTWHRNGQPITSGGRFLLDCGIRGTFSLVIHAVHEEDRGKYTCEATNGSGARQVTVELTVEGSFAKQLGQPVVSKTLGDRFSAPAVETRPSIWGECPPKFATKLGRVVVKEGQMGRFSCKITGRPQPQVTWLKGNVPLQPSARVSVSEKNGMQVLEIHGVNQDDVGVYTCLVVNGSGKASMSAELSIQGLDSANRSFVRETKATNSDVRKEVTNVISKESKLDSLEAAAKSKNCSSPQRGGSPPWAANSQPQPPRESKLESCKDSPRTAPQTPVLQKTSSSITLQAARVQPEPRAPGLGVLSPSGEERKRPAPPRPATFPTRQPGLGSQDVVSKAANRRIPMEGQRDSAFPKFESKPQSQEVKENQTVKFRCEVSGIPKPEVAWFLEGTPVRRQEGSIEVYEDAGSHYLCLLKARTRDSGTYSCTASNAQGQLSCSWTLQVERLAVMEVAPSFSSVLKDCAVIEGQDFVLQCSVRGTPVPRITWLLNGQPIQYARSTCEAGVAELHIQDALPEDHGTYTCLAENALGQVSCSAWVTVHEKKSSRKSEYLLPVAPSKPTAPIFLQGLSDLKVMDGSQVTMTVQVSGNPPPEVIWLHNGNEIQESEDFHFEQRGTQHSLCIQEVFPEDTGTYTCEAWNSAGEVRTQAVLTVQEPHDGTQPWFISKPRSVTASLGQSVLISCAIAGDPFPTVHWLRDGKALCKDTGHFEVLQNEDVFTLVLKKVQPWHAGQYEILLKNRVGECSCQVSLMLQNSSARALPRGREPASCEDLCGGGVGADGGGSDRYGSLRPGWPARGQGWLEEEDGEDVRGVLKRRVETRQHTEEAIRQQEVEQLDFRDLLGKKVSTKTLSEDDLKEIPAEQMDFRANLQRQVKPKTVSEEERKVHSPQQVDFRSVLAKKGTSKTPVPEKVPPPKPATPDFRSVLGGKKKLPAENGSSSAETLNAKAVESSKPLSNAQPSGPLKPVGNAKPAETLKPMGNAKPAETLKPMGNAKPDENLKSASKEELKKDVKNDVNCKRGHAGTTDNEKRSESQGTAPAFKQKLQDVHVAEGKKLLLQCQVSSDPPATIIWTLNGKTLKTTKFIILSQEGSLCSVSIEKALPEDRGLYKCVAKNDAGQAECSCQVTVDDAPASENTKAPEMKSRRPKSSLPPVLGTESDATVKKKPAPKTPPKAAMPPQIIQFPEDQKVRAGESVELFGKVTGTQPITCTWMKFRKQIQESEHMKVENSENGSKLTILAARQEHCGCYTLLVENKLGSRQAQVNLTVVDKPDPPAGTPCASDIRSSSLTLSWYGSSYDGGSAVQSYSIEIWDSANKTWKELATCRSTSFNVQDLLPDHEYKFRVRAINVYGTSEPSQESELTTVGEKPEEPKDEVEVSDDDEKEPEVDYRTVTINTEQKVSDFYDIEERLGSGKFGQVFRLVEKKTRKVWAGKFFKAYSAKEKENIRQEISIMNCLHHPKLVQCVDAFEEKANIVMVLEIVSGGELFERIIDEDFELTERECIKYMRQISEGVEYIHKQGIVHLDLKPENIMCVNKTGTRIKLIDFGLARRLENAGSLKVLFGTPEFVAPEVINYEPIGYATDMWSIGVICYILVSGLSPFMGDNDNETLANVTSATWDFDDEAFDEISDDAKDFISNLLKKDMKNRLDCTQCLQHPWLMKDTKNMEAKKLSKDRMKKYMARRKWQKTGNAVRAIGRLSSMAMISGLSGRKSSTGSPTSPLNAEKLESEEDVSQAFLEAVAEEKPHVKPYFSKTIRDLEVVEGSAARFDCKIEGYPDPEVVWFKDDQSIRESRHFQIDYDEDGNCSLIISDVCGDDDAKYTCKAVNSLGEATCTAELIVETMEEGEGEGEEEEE

STK33 (human) = STK33 (human) (UniProt Q9BYT3)
RPS6KA2 KD1 KD2 (human) = RPS6KA2 KD1 KD2 (human) (UniProt Q15349)
Sequence of RPS6KA2 KD1 KD2 (human) (Q15349 whole entry, looked up): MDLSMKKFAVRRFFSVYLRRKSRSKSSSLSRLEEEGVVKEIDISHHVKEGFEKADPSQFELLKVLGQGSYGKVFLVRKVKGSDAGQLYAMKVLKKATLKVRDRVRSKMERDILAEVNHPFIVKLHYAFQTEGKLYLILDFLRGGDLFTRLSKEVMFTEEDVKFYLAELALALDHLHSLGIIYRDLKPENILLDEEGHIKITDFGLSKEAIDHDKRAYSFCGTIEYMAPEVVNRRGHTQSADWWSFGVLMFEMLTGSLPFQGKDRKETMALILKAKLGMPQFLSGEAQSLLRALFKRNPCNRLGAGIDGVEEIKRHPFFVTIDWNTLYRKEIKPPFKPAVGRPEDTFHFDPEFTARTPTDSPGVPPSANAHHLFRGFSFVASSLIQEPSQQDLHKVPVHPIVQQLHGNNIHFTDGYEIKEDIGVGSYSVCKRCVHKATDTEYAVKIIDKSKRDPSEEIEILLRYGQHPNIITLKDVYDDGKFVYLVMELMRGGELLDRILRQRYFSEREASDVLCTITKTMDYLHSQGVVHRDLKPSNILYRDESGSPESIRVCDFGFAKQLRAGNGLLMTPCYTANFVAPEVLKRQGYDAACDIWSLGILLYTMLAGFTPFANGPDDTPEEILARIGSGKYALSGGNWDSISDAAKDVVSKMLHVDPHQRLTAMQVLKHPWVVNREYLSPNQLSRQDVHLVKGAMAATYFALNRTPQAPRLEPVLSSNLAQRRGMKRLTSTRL

PAK1 (human) = PAK1 (human) (UniProt Q13153)
CDK2 CCNE1 (human) = CDK2 CCNE1 (human) (UniProt P24941+P24864)
CDK9 CCNK (human) = CDK9 CCNK (human) (UniProt O75909+P50750)
TAOK3 (human) = TAOK3 (human) (UniProt Q9H2K8)
BTK (human) = BTK (human) (UniProt Q06187)
PHKG1 (human) = PHKG1 (human) (UniProt Q16816)
DYRK1B (human) = DYRK1B (human) (UniProt Q9Y463)
[1] = target: JAK1 JH1 catalytic (human) (UniProt P23458)
TGFBR1 (human) = TGFBR1 (human) (UniProt P36897)
Sequence of TGFBR1 (human) (P36897 whole entry, looked up): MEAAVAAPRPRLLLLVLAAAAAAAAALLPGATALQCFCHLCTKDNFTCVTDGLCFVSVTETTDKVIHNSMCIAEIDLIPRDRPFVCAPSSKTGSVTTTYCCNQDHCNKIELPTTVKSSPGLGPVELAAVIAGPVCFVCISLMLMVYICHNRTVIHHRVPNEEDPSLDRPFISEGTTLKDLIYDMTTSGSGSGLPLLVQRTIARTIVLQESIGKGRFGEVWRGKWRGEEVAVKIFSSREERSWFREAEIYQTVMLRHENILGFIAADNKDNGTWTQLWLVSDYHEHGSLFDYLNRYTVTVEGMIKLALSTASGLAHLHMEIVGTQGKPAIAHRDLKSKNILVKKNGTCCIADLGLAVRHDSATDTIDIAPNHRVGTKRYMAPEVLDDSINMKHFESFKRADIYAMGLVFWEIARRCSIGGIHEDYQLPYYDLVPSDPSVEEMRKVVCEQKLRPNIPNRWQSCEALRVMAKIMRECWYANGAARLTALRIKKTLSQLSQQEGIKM

DAPK3 (human) = DAPK3 (human) (UniProt O43293)
TXK (human) = TXK (human) (UniProt P42681)
CHUK (human) = CHUK (human) (UniProt O15111)
Sequence of CHUK (human) (O15111 whole entry, looked up): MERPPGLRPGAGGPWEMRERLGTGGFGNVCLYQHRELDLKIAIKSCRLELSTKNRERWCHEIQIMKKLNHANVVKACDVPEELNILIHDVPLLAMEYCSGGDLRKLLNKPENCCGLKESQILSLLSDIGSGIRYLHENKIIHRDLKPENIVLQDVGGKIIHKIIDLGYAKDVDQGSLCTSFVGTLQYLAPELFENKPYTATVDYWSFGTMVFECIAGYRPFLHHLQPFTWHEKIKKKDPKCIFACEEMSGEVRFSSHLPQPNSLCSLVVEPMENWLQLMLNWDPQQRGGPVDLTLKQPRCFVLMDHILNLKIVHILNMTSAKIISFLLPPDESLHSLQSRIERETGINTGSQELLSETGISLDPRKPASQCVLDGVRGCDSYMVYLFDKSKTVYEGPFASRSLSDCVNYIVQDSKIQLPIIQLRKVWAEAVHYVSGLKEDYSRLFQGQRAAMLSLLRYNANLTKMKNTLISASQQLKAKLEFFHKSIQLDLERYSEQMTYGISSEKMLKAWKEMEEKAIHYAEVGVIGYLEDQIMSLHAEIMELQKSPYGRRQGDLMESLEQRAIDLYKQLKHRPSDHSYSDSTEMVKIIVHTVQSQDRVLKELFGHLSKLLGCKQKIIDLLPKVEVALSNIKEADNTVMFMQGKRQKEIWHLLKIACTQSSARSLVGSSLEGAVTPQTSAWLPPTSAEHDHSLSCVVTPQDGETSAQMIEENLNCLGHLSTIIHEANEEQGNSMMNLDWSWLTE

NEK2 (human) = NEK2 (human) (UniProt P51955)
RPS6KA1 KD1 KD2 (human) = RPS6KA1 KD1 KD2 (human) (UniProt Q15418)
CAMK1D (human) = CAMK1D (human) (UniProt Q8IU85)
Sequence of CAMK1D (human) (Q8IU85 whole entry, looked up): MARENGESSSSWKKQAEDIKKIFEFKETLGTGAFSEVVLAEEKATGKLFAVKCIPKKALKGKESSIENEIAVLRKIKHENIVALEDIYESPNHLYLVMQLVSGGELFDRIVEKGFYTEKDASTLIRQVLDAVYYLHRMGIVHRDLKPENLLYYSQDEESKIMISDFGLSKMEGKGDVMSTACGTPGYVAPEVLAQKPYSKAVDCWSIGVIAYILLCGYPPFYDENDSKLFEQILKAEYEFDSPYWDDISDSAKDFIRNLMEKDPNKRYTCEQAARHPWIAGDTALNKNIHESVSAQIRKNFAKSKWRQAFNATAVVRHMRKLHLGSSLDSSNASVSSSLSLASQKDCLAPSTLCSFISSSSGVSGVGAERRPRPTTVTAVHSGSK

FLT1 (human) = FLT1 (human) (UniProt P17948)
NTRK2 (human) = NTRK2 (human) (UniProt Q16620)
KDR (human) = KDR (human) (UniProt P35968)
FGFR2 (human) = FGFR2 (human) (UniProt P21802)
PRKACA (human) = PRKACA (human) (UniProt P17612)
FES (human) = FES (human) (UniProt P07332)
Sequence of FES (human) (P07332 whole entry, looked up): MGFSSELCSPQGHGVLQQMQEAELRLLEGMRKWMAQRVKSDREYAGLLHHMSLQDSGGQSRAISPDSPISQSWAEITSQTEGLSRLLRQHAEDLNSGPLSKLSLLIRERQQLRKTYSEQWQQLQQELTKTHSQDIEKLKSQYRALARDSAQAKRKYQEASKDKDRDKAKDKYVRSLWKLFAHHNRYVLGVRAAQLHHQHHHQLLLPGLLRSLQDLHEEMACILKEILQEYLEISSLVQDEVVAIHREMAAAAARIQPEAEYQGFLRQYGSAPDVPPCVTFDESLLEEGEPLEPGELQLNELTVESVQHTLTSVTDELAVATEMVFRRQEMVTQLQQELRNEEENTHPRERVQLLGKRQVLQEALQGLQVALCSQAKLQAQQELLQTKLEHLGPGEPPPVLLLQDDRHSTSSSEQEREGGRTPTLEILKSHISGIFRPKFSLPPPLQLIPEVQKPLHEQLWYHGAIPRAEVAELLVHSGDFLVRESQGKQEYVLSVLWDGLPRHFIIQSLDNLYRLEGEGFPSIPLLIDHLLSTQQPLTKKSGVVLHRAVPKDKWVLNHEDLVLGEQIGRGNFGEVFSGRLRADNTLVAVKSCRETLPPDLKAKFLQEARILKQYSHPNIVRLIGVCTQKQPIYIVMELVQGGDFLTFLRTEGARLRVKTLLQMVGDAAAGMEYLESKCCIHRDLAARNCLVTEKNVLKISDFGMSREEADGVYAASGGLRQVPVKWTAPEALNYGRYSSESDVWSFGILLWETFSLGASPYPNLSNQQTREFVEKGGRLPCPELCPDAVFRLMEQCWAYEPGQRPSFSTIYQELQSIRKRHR

EPHA2 (human) = EPHA2 (human) (UniProt P29317)
ADRBK1 (human) = ADRBK1 (human) (UniProt P25098)
DYRK3 (human) = DYRK3 (human) (UniProt O43781)
NUAK2 (human) = NUAK2 (human) (UniProt Q9H093)
DYRK1A (human) = DYRK1A (human) (UniProt Q13627)
AKT3 (human) = AKT3 (human) (UniProt Q9Y243)

SMILES	residual activity (ADRBK2 (human)) [%]	residual activity (BLK (human)) [%]	residual activity (CSF1R (human)) [%]	residual activity (MARK1 (human)) [%]	residual activity (STK3 (human)) [%]	residual activity (MAPK8 (human)) [%]	residual activity (NEK4 (human)) [%]	residual activity (MAPKAPK3 (human)) [%]	residual activity (TSSK1B (human)) [%]	residual activity (TEK (human)) [%]	residual activity (MYLK (human)) [%]	residual activity (STK33 (human)) [%]	residual activity (RPS6KA2 KD1 KD2 (human)) [%]	residual activity (PAK1 (human)) [%]	residual activity (CDK9 CCNK (human)) [%]	residual activity (TAOK3 (human)) [%]	residual activity (BTK (human)) [%]	residual activity (PHKG1 (human)) [%]	residual activity (DYRK1B (human)) [%]	residual activity [1] [%]	other results
c1ccc(-c2cnc(Nc3ccc(OCCN4CCCC4)cc3)s2)cc1	103	92	38.4	90.1	108	92.4	96.1	97.6	96.5	102	96.9	91	85	97	39.8	87.4	101	45.5	95.4	101	residual activity (CDK7 CCNH MNAT1 (human)): 102%; residual activity (CDK2 CCNE1 (human)): 85.7%; residual activity (TGFBR1 (human)): 97%; residual activity (DAPK3 (human)): 105%; residual activity (TXK (human)): 91.1%; residual activity (CHUK (human)): 93.3%; residual activity (NEK2 (human)): 90.6%; residual activity (RPS6KA1 KD1 KD2 (human)): 78%; residual activity (CAMK1D (human)): 101%; residual activity (FLT1 (human)): 74.5%; residual activity (NTRK2 (human)): 50.4%; residual activity (KDR (human)): 76.1%; residual activity (FGFR2 (human)): 92.7%; residual activity (PRKACA (human)): 102%; residual activity (FES (human)): 93.2%; residual activity (EPHA2 (human)): 108%; residual activity (ADRBK1 (human)): 95.8%; residual activity (DYRK3 (human)): 106%; residual activity (NUAK2 (human)): 107%; residual activity (DYRK1A (human)): 94.2%
N#CCCc1ccc2c(c1)-c1[nH]c3ccc([N+](=O)[O-])cc3c1CC(=O)N2	97.1	78.8	43.4	67.4	40.9	93.1	104	96.8	59.2	97.6	95.2	78.8	24.4	52.1	23.7	66	94.6	7.72	76.8	91.9	residual activity (CDK2 CCNE1 (human)): 13.4%; residual activity (TGFBR1 (human)): 103%; residual activity (AKT3 (human)): 95.5%; residual activity (DAPK3 (human)): 99.3%; residual activity (TXK (human)): 67.6%; residual activity (CHUK (human)): 105%; residual activity (NEK2 (human)): 92.7%; residual activity (RPS6KA1 KD1 KD2 (human)): 59.9%; residual activity (CAMK1D (human)): 91.8%; residual activity (FLT1 (human)): 99.7%; residual activity (NTRK2 (human)): 86.4%; residual activity (KDR (human)): 75.5%; residual activity (FGFR2 (human)): 93.2%; residual activity (PRKACA (human)): 87.6%; residual activity (FES (human)): 37.9%; residual activity (EPHA2 (human)): 93.6%; residual activity (ADRBK1 (human)): 96.4%; residual activity (DYRK3 (human)): 97.6%; residual activity (NUAK2 (human)): 67.6%; residual activity (DYRK1A (human)): 85.9%
N/C(=N\N=C/c1ccc(-c2cccc([N+](=O)[O-])c2)o1)N[N+](=O)[O-]	102	102	94.5	90.7	100	91.2	103	95.4	96.7	99.6	92.5	102	94.5	91.4	95.7	99.5	110	101	104	102	residual activity (CDK7 CCNH MNAT1 (human)): 100%; residual activity (TGFBR1 (human)): 96.6%; residual activity (AKT3 (human)): 94.3%; residual activity (DAPK3 (human)): 103%; residual activity (TXK (human)): 98.3%; residual activity (CHUK (human)): 88.1%; residual activity (NEK2 (human)): 88.9%; residual activity (RPS6KA1 KD1 KD2 (human)): 86.3%; residual activity (CAMK1D (human)): 96.4%; residual activity (FLT1 (human)): 97.6%; residual activity (NTRK2 (human)): 82.4%; residual activity (KDR (human)): 96.7%; residual activity (FGFR2 (human)): 104%; residual activity (PRKACA (human)): 93.3%; residual activity (FES (human)): 101%; residual activity (ADRBK1 (human)): 98.9%; residual activity (DYRK3 (human)): 102%; residual activity (NUAK2 (human)): 95.2%; residual activity (DYRK1A (human)): 95.8%
Nc1ncnc2c1cnn2-c1ccccc1	105	100	105	94.8	92.3	87.1	98.7	96.6	84.1	92.2	99.7	96.1	92.5	94.2	92.9	89.1	98.7	94.2	93	98.1	residual activity (CDK7 CCNH MNAT1 (human)): 102%; residual activity (CDK2 CCNE1 (human)): 93.9%; residual activity (TGFBR1 (human)): 99.6%; residual activity (AKT3 (human)): 102%; residual activity (DAPK3 (human)): 103%; residual activity (TXK (human)): 94.8%; residual activity (CHUK (human)): 92.6%; residual activity (NEK2 (human)): 98.8%; residual activity (RPS6KA1 KD1 KD2 (human)): 79.5%; residual activity (CAMK1D (human)): 95.6%; residual activity (FLT1 (human)): 88.5%; residual activity (NTRK2 (human)): 88.7%; residual activity (KDR (human)): 98.8%; residual activity (FGFR2 (human)): 100%; residual activity (FES (human)): 99.7%; residual activity (EPHA2 (human)): 96%; residual activity (ADRBK1 (human)): 99.4%; residual activity (DYRK3 (human)): 96.8%; residual activity (NUAK2 (human)): 75.2%; residual activity (DYRK1A (human)): 96.8%
N#Cc1c(NC(=O)c2cccc3ccccc23)sc2c1CCCC2	106	105	97.2	100	111	87.3	94.6	102	94.9	104	98.7	93	95.3	97.4	90.5	90.2	95	93.8	101	108	residual activity (CDK7 CCNH MNAT1 (human)): 101%; residual activity (CDK2 CCNE1 (human)): 89.1%; residual activity (TGFBR1 (human)): 101%; residual activity (AKT3 (human)): 99.6%; residual activity (DAPK3 (human)): 110%; residual activity (TXK (human)): 97%; residual activity (CHUK (human)): 99.6%; residual activity (NEK2 (human)): 88.1%; residual activity (RPS6KA1 KD1 KD2 (human)): 86.1%; residual activity (CAMK1D (human)): 120%; residual activity (FLT1 (human)): 84.4%; residual activity (NTRK2 (human)): 100%; residual activity (KDR (human)): 100%; residual activity (FGFR2 (human)): 110%; residual activity (PRKACA (human)): 102%; residual activity (FES (human)): 103%; residual activity (ADRBK1 (human)): 105%; residual activity (DYRK3 (human)): 128%; residual activity (NUAK2 (human)): 76.7%; residual activity (DYRK1A (human)): 96.7%
